Assay results: patent US9840467B2, “Arylhydrazides containing a 2-pyridone moiety as selective antibacterial agents” (ABAC THERAPEUTICS, S.L., priority 2014, dated 2017)
≈ marks a conversion by molar mass, not a printed value. Where two headings read alike, the source gives them in different places.

What was measured:
S. pneumoniae = test: MIC, CLSI microtiter dilution, S. pneumoniae; assay type: cell-based, Streptococcus pneumoniae
Protocol: (§1) The products of the present invention were tested for their activity against A. baumannii as well as against the following bacteria: Staphylococcus aureus (S. aureus), Streptococcus pneumoniae (S. pneumoniae), Enterococcus faecium (E. faecium), Pseudomonas aeruginosa (P. aeruginosa), Klebsiella pneumoniae (K. pneumoniae.), Enterobacter aerogenes (E. aerogenes) and Escherichia coli (E. coli).
(§2) Minimal inhibitory concentrations (MICs) were determined using a standard microtiter dilution method, according to the Clinical and Laboratory Standards Institute (CLSI) procedures, in particular according to M07-A9: “Methods for Dilution Antimicrobial Susceptibility Tests for Bacteria That Grow Aerobically; Approved Standard—Ninth Edition”.
(§3) Briefly, compounds were dissolved with dimethyl sulfoxide (DMSO) at 12.8 mg/mL. Serial two-fold dilutions of compounds were performed in DMSO and 1 μl of each dilution were transferred into microtiter culture plates, followed by 100 μl of inoculated culture media to give a final microorganism concentration of 5×10^5 colony-forming units/mL. Plates were incubated at 37° C. for 24 hours and MICs determined as the lowest compound concentration that inhibited growth. Media used in determinations were Cation adjusted Mueller-Hinton Broth for all the microorganisms except for S. pneumoniae and E. faecium whose culture media were supplemented with 2.5% of lysed horse blood. Incubations were performed at air atmosphere except S. pneumoniae cultures that were incubated with 5% CO2 atmosphere.

E. faecium = test: MIC, CLSI microtiter dilution, E. faecium; assay type: cell-based, Enterococcus faecium
Protocol: as §1, §2, §3

S. aureus = test: MIC, CLSI microtiter dilution, S. aureus; assay type: cell-based, Staphylococcus aureus
Protocol: as §1, §2, §3

P. aeruginosa = test: MIC, CLSI microtiter dilution, P. aeruginosa; assay type: cell-based, Pseudomonas aeruginosa
Protocol: as §1, §2, §3

A. baumannii = test: MIC, CLSI microtiter dilution, A. baumannii; assay type: cell-based, Acinetobacter baumannii
Protocol: as §1, §2, §3

E. aerogenes = test: MIC, CLSI microtiter dilution, E. aerogenes; assay type: cell-based, Enterobacter aerogenes
Protocol: as §1, §2, §3

E. coli = test: MIC, CLSI microtiter dilution, E. coli; assay type: cell-based, Escherichia coli
Protocol: as §1, §2, §3

K. pneumoniae = test: MIC, CLSI microtiter dilution, K. pneumoniae; assay type: cell-based, Klebsiella pneumoniae
Protocol: as §1, §2, §3

[1] = Streptococcus pneumoniae, S. pneumoniae, 37° C., 24 hours, 2.5% lysed horse blood, 5% CO2, read-out: MIC
[2] = Enterococcus faecium, E. faecium, 37° C., 24 hours, 2.5% lysed horse blood, read-out: MIC
[3] = Staphylococcus aureus, S. aureus, 37° C., 24 hours, Cation adjusted Mueller-Hinton Broth, read-out: MIC
[4] = Pseudomonas aeruginosa, P. aeruginosa, 37° C., 24 hours, Cation adjusted Mueller-Hinton Broth, read-out: MIC
[5] = Acinetobacter baumannii, A. baumannii, 37° C., 24 hours, Cation adjusted Mueller-Hinton Broth, read-out: MIC
[6] = Klebsiella aerogenes, E. aerogenes, 37° C., 24 hours, Cation adjusted Mueller-Hinton Broth, read-out: MIC
[7] = Escherichia coli, E. coli, 37° C., 24 hours, Cation adjusted Mueller-Hinton Broth, read-out: MIC
[8] = Klebsiella pneumoniae, K. pneumoniae, 37° C., 24 hours, Cation adjusted Mueller-Hinton Broth, read-out: MIC

Compound	MIC (S. pneumoniae; [1]) [µg/mL]	MIC (E. faecium; [2]) [µg/mL]	MIC (S. aureus; [3]) [µg/mL]	MIC (P. aeruginosa; [4]) [µg/mL]	MIC (A. baumannii; [5]) [µg/mL]	MIC (E. aerogenes; [6]) [µg/mL]	MIC (E. coli; [7]) [µg/mL]	MIC (K. pneumoniae; [8]) [µg/mL]	MIC (S. pneumoniae; Streptococcus pneumoniae, 24 h) [µg/mL]	MIC (E. faecium; Enterococcus faecium, 24 h) [µg/mL]	MIC (S. aureus; Staphylococcus aureus, 24 h) [µg/mL]	MIC (P. aeruginosa; Pseudomonas aeruginosa, 24 h) [µg/mL]	MIC (A. baumannii; Acinetobacter baumannii, 24 h) [µg/mL]	MIC (E. aerogenes; Klebsiella aerogenes, 24 h) [µg/mL]	MIC (E. coli; Escherichia coli, 24 h) [µg/mL]	MIC (K. pneumoniae; Klebsiella pneumoniae, 24 h) [µg/mL]	further results
CCn1cccc(C(=O)NNc2ccc(F)cc2)c1=O [Ex. 16, 1-Ethyl-2-oxo-1,2-dihydropyridine-3-carboxylic acid N′-(4-fluorophenyl)-hydrazide]	> 128	> 128	> 128	> 128	0.5 (≈ 1.82 µM)	> 128	> 128	> 128	–	–	–	–	–	–	–	–	–
COCCn1c(C(=O)NNc2ccc(F)cc2)cccc1=O [Ex. 3, 1-(2-methoxyethyl)-6-oxo-1,6-dihydro-pyridine-2-carboxylic acid N′-(4-fluorophenyl)-hydrazide]	–	–	–	–	–	–	–	–	> 128	> 128	> 128	> 128	< 0.25	> 128	> 128	> 128	–
Cn1cc(C(=O)NNc2ccc(F)cc2)ccc1=O [Ex. 19, 1-Methyl-6-oxo-1,6-dihydropyridine-3-carboxylic acid N′-(4-fluorophenyl)-hydrazide]	> 128	> 128	> 128	> 128	0.25 (≈ 0.957 µM)	> 128	> 128	> 128	–	–	–	–	–	–	–	–	–
COc1cc(C(=O)NNc2ccc(F)cc2)n(C)c(=O)c1 [Ex. 21, 4-Methoxy-1-methyl-6-oxo-1,6-dihydropyridine-2-carboxylic acid N′-(4-fluorophenyl)-hydrazide]	> 128	> 128	> 128	> 128	0.25 (≈ 0.858 µM)	> 128	> 128	> 128	–	–	–	–	–	–	–	–	–
O=C(NNc1ccc(F)cc1)c1cccc(=O)n1Cc1ccccc1 [Ex. 5, 1-Benzyl-6-oxo-1,6-dihydro-pyridine-2-carboxylic acid N′-(4-fluorophenyl)-hydrazide]	> 128	> 128	> 128	> 128	0.25 (≈ 0.741 µM)	> 128	> 128	> 128	–	–	–	–	–	–	–	–	–
Cn1c(C(=O)NNc2c(F)cccc2F)cccc1=O [Ex. 13, 1-Methyl-6-oxo-1,6-dihydropyridine-2-carboxylic acid N′-(2,6-difluorophenyl)-hydrazide]	–	–	–	–	–	–	–	–	> 128	> 128	> 128	> 128	0.5 (≈ 1.79 µM)	> 128	> 128	> 128	–
O=C(NNc1ccc(F)cc1)c1cccc(=O)n1C(F)F [Ex. 4, 1-Difluoromethyl-6-oxo-1,6-dihydro-pyridine-2-carboxylic acid N′-(4-fluorophenyl)-hydrazide]	> 128	> 128	> 128	> 128	1 (≈ 3.36 µM)	> 128	> 128	> 128	–	–	–	–	–	–	–	–	–
O=C(NNc1ccc(F)cc1)c1cccc(=O)n1CC(F)(F)F [Ex. 8, 6-Oxo-1-(2,2,2-trifluoroethyl)-1,6-dihydropyridine-2-carboxylic acid N′-(4-fluorophenyl)-hydrazide]	–	–	–	–	–	–	–	–	> 128	> 128	> 128	> 128	0.25 (≈ 0.759 µM)	> 128	> 128	> 128	–
Cn1c(C(=O)NNc2ccc(F)cc2)cccc1=O [Ex. 1, 1-Methyl-6-oxo-1,6-dihydro-pyridine-2-carboxylic acid N′-(4-fluoro-phenyl)-hydrazide]	> 128	> 128	> 128	> 128	0.5 (≈ 1.91 µM)	> 128	64 (≈ 245 µM)	> 128	–	–	–	–	–	–	–	–	–
CCn1c(C(=O)NNc2ccc(F)cc2)cccc1=O [Ex. 2, 1-Ethyl-6-oxo-1,6-dihydro-pyridine-2-carboxylic acid N′-(4-fluoro-phenyl)-hydrazide]	–	–	–	–	–	–	–	–	> 128	> 128	> 128	> 128	1 (≈ 3.63 µM)	> 128	> 128	> 128	–
NC(=O)Cn1c(C(=O)NNc2ccc(F)cc2)cccc1=O [Ex. 15, 1-(2-Amino-2-oxoethyl)-6-oxo-1,6-dihydropyridine-2-carboxylic acid N′-(4-fluorophenyl)-hydrazide]	–	–	–	–	–	–	–	–	> 128	> 128	> 128	> 128	0.5 (≈ 1.64 µM)	> 128	> 128	> 128	–
Cn1cccc(C(=O)NNc2ccc(F)cc2)c1=O [Ex. 17, 1-Methyl-2-oxo-1,2-dihydropyridine-3-carboxylic acid N′-(4-fluorophenyl)-hydrazide]	–	–	–	–	–	–	–	–	> 128	> 128	> 128	> 128	0.5 (≈ 1.91 µM)	> 128	> 128	> 128	–
CN(C)C(=O)Cn1c(C(=O)NNc2ccc(F)cc2)cccc1=O [Ex. 14, 1-(2-(Dimethylamino)-2-oxoethyl)-6-oxo-1,6-dihydropyridine-2-carboxylic acid N′-(4-fluorophenyl)-hydrazide]	–	–	–	–	–	–	–	–	> 128	> 128	> 128	> 128	0.25 (≈ 0.752 µM)	> 128	> 128	> 128	–
C#CCn1c(C(=O)NNc2ccc(F)cc2)cccc1=O [Ex. 7, 1-(Prop-2-yn-1-yl)-6-oxo-1,6-dihydropyridine-2-carboxylic acid N′-(4-fluorophenyl)-hydrazide]	–	–	–	–	–	–	–	–	> 128	> 128	> 128	> 128	0.25 (≈ 0.876 µM)	> 128	> 128	> 128	–
Cn1c(C(=O)NNc2ccc(F)cc2F)cccc1=O [Ex. 12, 1-Methyl-6-oxo-1,6-dihydropyridine-2-carboxylic acid N′-(2,4-difluorophenyl)-hydrazide]	–	–	–	–	–	–	–	–	> 128	> 128	> 128	> 128	0.25 (≈ 0.895 µM)	> 128	> 128	> 128	–
Cn1ccc(C(=O)NNc2ccc(F)cc2)cc1=O [Ex. 18, 1-Methyl-2-oxo-1,2-dihydropyridine-4-carboxylic acid N′-(4-fluorophenyl)-hydrazide]	> 128	> 128	> 128	> 128	0.25 (≈ 0.957 µM)	> 128	> 128	> 128	–	–	–	–	–	–	–	–	–
COc1ccc(NNC(=O)c2cccc(=O)n2C)cc1 [Ex. 9, 1-Methyl-6-oxo-1,6-dihydropyridine-2-carboxylic acid N′-(4-methoxyphenyl)-hydrazide]	–	–	–	–	–	–	–	–	> 128	> 128	> 128	> 128	0.25 (≈ 0.915 µM)	> 128	> 128	> 128	–
Cc1ccc(NNC(=O)c2cccc(=O)n2C)cc1 [Ex. 11, 1-Methyl-6-oxo-1,6-dihydropyridine-2-carboxylic acid N′-(4-methylphenyl)-hydrazide]	–	–	–	–	–	–	–	–	> 128	> 128	> 128	> 128	0.5 (≈ 1.94 µM)	> 128	> 128	> 128	–
1-Cyclopropylmethyl-6-oxo-1,6-dihydro-pyridine-2-carboxylic acid N′-(4-fluorophenyl)-hydrazide [Ex. 6]	–	–	–	–	–	–	–	–	–	–	–	–	–	–	–	–	MIC (S. pneumoniae; S. pneumoniae, 37° C., 24 hours, 2.5% lysed horse blood, 5% CO2): >128 µg/mL; MIC (E. faecium; E. faecium, 37° C., 24 hours, 2.5% lysed horse blood): >128 µg/mL; MIC (S. aureus; S. aureus, 37° C., 24 hours, Cation adjusted Mueller-Hinton Broth): >128 µg/mL; MIC (P. aeruginosa; P. aeruginosa, 37° C., 24 hours, Cation adjusted Mueller-Hinton Broth): >128 µg/mL; MIC (A. baumannii; A. baumannii, 37° C., 24 hours, Cation adjusted Mueller-Hinton Broth): <0.25 µg/mL; MIC (E. aerogenes; E. aerogenes, 37° C., 24 hours, Cation adjusted Mueller-Hinton Broth): >128 µg/mL; MIC (E. coli; E. coli, 37° C., 24 hours, Cation adjusted Mueller-Hinton Broth): >128 µg/mL; MIC (K. pneumoniae; K. pneumoniae, 37° C., 24 hours, Cation adjusted Mueller-Hinton Broth): >128 µg/mL
